As a reminder, the IC50 is the point on the concentration scale where inhibition reaches its midpoint. High values mean weaker potency in that assay, low ones greater potency in that assay. What is called melting point is the temperature of the solid-liquid transition.

Data set [1] can be described thus: DPPH radical scavenging activity. Particulars: DPPH 300 μM in methanol, 30 minutes, 25 °C. The method, then: The capacity of the chemical compounds to decolourize the purple colour of DPPH solution was investigated following a modified procedure of Turkoglu et al..[48] […] The solution was mixed gently before equilibration in a dark compartment for 30 minutes at 25 °C. […] The DPPH radical scavenging ability of each compound was estimated using the expression below: %DPPHscavenging=1-TestsampleAbs/BlankAbs×100

The subject of another data set is Mtb H37Rv. The data set is described as follows: microbe, parasite or virus in culture. It counts as cell-based, Mycobacterium tuberculosis. Conditions: for MIC90: Mycobacterium tuberculosis, H37RV, read-out: GFP Assay – 10pt DR: MIC90.
Data set [2] can be described thus: Nitric oxide (NO) scavenging activity. Conditions: sodium nitroprusside, pH 7.4, 2 hr, 37 °C, Griess reagent. On the procedure:
The NO radical mop‐up ability of the compounds was evaluated using Kurian et al.[49] previous protocol. […] After 2 hr equilibration at 37 °C, 0.250 mL of Griess reagent was added, and the absorbance of the coloured solution produced was measured at 545 nm against a blank solution lacking the test samples. Subsequently, the % NO scavenging antioxidant capacity of the compounds was expressed as: %Nitricoxidescavenging=1-TestsampleAbs/BlankAbs×100

In brackets after ≈: the same amount, converted by molar mass. Several values for one entry are separate records, joined by “and”; a condition that tells them apart may be missing. Equal values may be shown once.

As for `Nc1ncnc2c1c(N1CCN(CCO)CC1)nn2-c1ccnc2cc(Cl)ccc12` [10 g, 2‐(4‐(4‐Amino‐1‐(7‐Chloroquinolin‐4‐yl)‐1H‐Pyrazolo[3,4–d]pyrimidin‐3‐yl)piperazin‐1‐yl)ethanol], it took 2960 µM to reach half-maximal inhibition in data set [1] (IC50). Also, in the data set on Mtb H37Rv, the “GFP Assay – 10pt DR: MIC90” value is over 125 µM and the MIC90 was 62.5 µM (≈ 26.6 µg/mL). This compound also came in with an IC50 in data set [2] of 280 µM.
Regarding `FC(F)(F)Oc1ccc(Nc2ccnc3cc(Cl)ccc23)cc1` [12 g, 7‐Chloro‐N‐(4‐(trifluoromethoxy)phenyl)quinolin‐4‐Amine], the melting point was over 250 °C. In addition, the IC50 in data set [1] is over 4000 µM. The same compound came in with an IC50 in data set [2] of over 4000 µM.
Consider `O=[N+]([O-])c1ccc(Nc2ccnc3cc(Cl)ccc23)cc1` [12 h, 7‐Chloro‐N‐(4‐Nitrophenyl)quinolin‐4‐Amine], for which, in data set [1], half-maximal inhibition (IC50) required 80 µM. In the data set with Mtb H37Rv, the “GFP Assay – 10pt DR: MIC90” value came out at 62.5 µM and the MIC90 is over 125 µM. Also, in data set [2], the IC50 came out at 650 µM.
With `O=C1O[C@H]([C@@H](O)CO)C(O)=C1O` [Ascorbic acid, reference compound], the IC50 in data set [1] was 50 µM; in data set [2], over 4000 µM.
As to `Nc1ncnc2[nH]ncc12` [Compound 4, 1H‐Pyrazolo[3,4–d]pyrimidin‐4‐Amine], the IC50 was over 4000 µM in data set [1] and 780 µM in data set [2].
With `Nc1ncnc2[nH]nc(N3CCCCC3)c12` [Compound 8a, 3‐(piperidin‐1‐yl)‐1H‐Pyrazolo[3,4–d]pyrimidin‐4‐Amine], the concentration for half-maximal inhibition (IC50) in data set [1] is 3400 µM. In the data set on Mtb H37Rv, the “GFP Assay – 10pt DR: MIC90” value was found to be 125 µM and the MIC90 is over 125 µM. Also, the IC50 in data set [2] came to 800 µM.
Turning to `CC1CCN(c2n[nH]c3ncnc(N)c23)CC1` [Compound 8b, 3‐(4‐methylpiperidin‐1‐yl)‐1H‐pyrazolo[3,4–d]pyrimidin‐4‐amine], the half-inhibitory concentration (IC50) in data set [1] is over 4000 µM; in data set [2], 1010 µM.
For `Nc1ncnc2[nH]nc(N3CCOCC3)c12` [Compound 8c, 3‐Morpholino‐1H‐Pyrazolo[3,4–d]pyrimidin‐4‐Amine], in that order: over 4000 µM and 880 µM.
With `CN1CCN(c2n[nH]c3ncnc(N)c23)CC1` [Compound 8d, 3‐(4‐Methylpiperazin‐1‐yl)‐1H‐Pyrazolo[3,4–d]pyrimidin‐4‐Amine], the concentration for half-maximal inhibition (IC50) is 580 µM in data set [1] and 800 µM in data set [2]. In the data set with Mtb H37Rv, the “GFP Assay – 10pt DR: MIC90” value is 62.5 µM. For the same compound, the MIC90 in the data set on Mtb H37Rv is over 125 µM.
For `CCN1CCN(c2n[nH]c3ncnc(N)c23)CC1` [Compound 8e, 3‐(4‐Ethylpiperazin‐1‐yl)‐1H‐Pyrazolo[3,4–d]pyrimidin‐4‐Amine], in that order: 930 µM, 980 µM, 62.5 µM and over 125 µM.
In the case of `Nc1ncnc2[nH]nc(N3CCN(CCO)CC3)c12` [Compound 8f], the half-maximal inhibitory concentration (IC50) in data set [1] came to 3540 µM; in data set [2] it was 600 µM. Besides, the MIC90 with Mtb H37Rv was over 125 µM.
For `Clc1ccc2c(Cl)ccnc2c1` [Compound 9, 4,7‐dichloroquinoline], in that order: over 4000 µM, 820 µM and over 125 µM.
For `Nc1ncnc2c1cnn2-c1ccnc2cc(Cl)ccc12` [Compound 10a, 1‐(7‐Chloroquinolin‐4‐yl)‐1H‐Pyrazolo[3,4–d]pyrimidin‐4‐Amine], in that order: over 4000 µM, 2590 µM and over 125 µM.
Turning to `Nc1ncnc2c1c(N1CCCCC1)nn2-c1ccnc2cc(Cl)ccc12` [Compound 10b, 1‐(7‐Chloroquinolin‐4‐yl)‐3‐(piperidin‐1‐yl)‐1H‐Pyrazolo[3,4–d]pyrimidin‐4‐Amine], the IC50 in data set [1] and in data set [2] was over 4000 µM throughout. In addition, in the data set with Mtb H37Rv, the MIC90 is over 125 µM.
In data set [1], `CC1CCN(c2nn(-c3ccnc4cc(Cl)ccc34)c3ncnc(N)c23)CC1` [Compound 10c, 1‐(7‐chloroquinolin‐4‐yl)‐3‐(4‐methylpiperidin‐1‐yl)‐1H‐pyrazolo[3,4–d]pyrimidin‐4‐amine] registered an IC50 of 2100 µM. Moreover, in the data set on Mtb H37Rv, the “GFP Assay – 10pt DR: MIC90” value is >125 µM and 125 µM; the MIC90 was determined as 62.5 µM (≈ 24.6 µg/mL). For the same compound, in data set [2], the midpoint of inhibition, the IC50, lay at 2780 µM.
On to `Nc1ncnc2c1c(N1CCOCC1)nn2-c1ccnc2cc(Cl)ccc12` [Compound 10d, 1‐(7‐Chloroquinolin‐4‐yl)‐3‐Morpholino‐1H‐Pyrazolo[3,4–d]pyrimidin‐4‐Amine], for which the IC50 is over 4000 µM in data set [1] and 2460 µM in data set [2]. For the same compound, in the data set with Mtb H37Rv, the MIC90 was over 125 µM.
On to `CN1CCN(c2nn(-c3ccnc4cc(Cl)ccc34)c3ncnc(N)c23)CC1` [Compound 10e, 1‐(7‐Chloroquinolin‐4‐yl)‐3‐(4‐Methylpiperazin‐1‐yl)‐1H‐Pyrazolo[3,4–d]pyrimidin‐4‐Amine], for which the IC50 in data set [1] and in data set [2] was over 4000 µM throughout.
`CCN1CCN(c2nn(-c3ccnc4cc(Cl)ccc34)c3ncnc(N)c23)CC1` [Compound 10f, 1‐(7‐Chloroquinolin‐4‐yl)‐3‐(4‐Ethylpiperazin‐1‐yl)‐1H‐Pyrazolo[3,4–d]pyrimidin‐4‐Amine]: the results for the IC50 in data set [1] and in data set [2] were over 4000 µM and 800 µM, respectively. Further, the “GFP Assay – 10pt DR: MIC90” value in the data set with Mtb H37Rv is >125 µM and 125 µM. Further, the MIC90 in the data set with Mtb H37Rv worked out at 62.5 µM (≈ 25.6 µg/mL).
Take `Clc1ccc2c(Nc3ccccc3)ccnc2c1` [Compound 12a, 7‐Chloro‐N‐Phenylquinolin‐4‐Amine]: the melting point is over 250 °C. The compound also displayed an IC50 in data set [1] of over 4000 µM. In addition, in the data set with Mtb H37Rv, the “GFP Assay – 10pt DR: MIC90” value was 62.5 µM and >125 µM; the MIC90 turned out to be 125 µM (≈ 31.8 µg/mL). The compound also yielded an IC50 in data set [2] of 500 µM.
Regarding `Fc1ccc(Nc2ccnc3cc(Cl)ccc23)cc1` [Compound 12b, 7‐Chloro‐N‐(4‐Fluorophenyl)quinolin‐4‐Amine], the IC50 is over 4000 µM in data set [1] and 1920 µM in data set [2].
Regarding `Clc1ccc(Nc2ccnc3cc(Cl)ccc23)cc1` [Compound 12c, 7‐Chloro‐N‐(4‐Chlorophenyl)quinolin‐4‐Amine], the melting point is over 250 °C. The same compound registered an IC50 in data set [1] of over 4000 µM. In addition, the MIC90 in the data set with Mtb H37Rv was over 125 µM. In addition, the IC50 in data set [2] was over 4000 µM.
On to `Clc1ccc2c(Nc3ccc(Br)cc3)ccnc2c1` [Compound 12d, N‐(4‐Bromophenyl)‐7‐Chloroquinolin‐4‐Amine], for which the melting point was over 250 °C. Further, the IC50 in data set [1] is over 4000 µM. Moreover, the MIC90 in the data set on Mtb H37Rv is over 125 µM. In data set [2], this compound had an IC50 of over 4000 µM.
On to `Cc1ccc(Nc2ccnc3cc(Cl)ccc23)cc1` [Compound 12e, 7‐Chloro‐N‐(p–tolyl)quinolin‐4‐Amine], for which the melting point is over 250 °C. The IC50 in data set [1] is over 4000 µM. The same compound yielded an IC50 in data set [2] of over 4000 µM.
Regarding `COc1ccc(Nc2ccnc3cc(Cl)ccc23)cc1` [Compound 12f, 7‐Chloro‐N‐(4‐Methoxyphenyl)quinolin‐4‐Amine], the values for the 50% inhibitory concentration (IC50) in data set [1] and in data set [2] were over 4000 µM and 880 µM, respectively. For the same compound, the “GFP Assay – 10pt DR: MIC90” value in the data set with Mtb H37Rv is over 125 µM. For the same compound, the MIC90 in the data set with Mtb H37Rv was 62.5 µM (≈ 17.8 µg/mL).

The values are drawn from article PMC11633360 (ChemistryOpen, 2024).
